Data: patent EP4800004A1, “ARYLALKYLAMINE COMPOUND, AND PREPARATION METHOD THEREFOR AND USE THEREOF” (Renhe Yikang Group Co., Ltd., priority 2024, dated 2025)

Columns and labels:
[1] = biological target: T1, human CaSR (Homo sapiens, UniProt P41180); experiment: In vitro CaSR conformational (allosteric) activation, intracellular Ca2+ change in hCaSR-CHO cells (Fluo-4 NW, FLIPR); type: cell-based; conditions: change in intracellular Ca2+ fluorescence intensity
T1 construct: expressed in transfected cells
T1 sequence (P41180 20-1078): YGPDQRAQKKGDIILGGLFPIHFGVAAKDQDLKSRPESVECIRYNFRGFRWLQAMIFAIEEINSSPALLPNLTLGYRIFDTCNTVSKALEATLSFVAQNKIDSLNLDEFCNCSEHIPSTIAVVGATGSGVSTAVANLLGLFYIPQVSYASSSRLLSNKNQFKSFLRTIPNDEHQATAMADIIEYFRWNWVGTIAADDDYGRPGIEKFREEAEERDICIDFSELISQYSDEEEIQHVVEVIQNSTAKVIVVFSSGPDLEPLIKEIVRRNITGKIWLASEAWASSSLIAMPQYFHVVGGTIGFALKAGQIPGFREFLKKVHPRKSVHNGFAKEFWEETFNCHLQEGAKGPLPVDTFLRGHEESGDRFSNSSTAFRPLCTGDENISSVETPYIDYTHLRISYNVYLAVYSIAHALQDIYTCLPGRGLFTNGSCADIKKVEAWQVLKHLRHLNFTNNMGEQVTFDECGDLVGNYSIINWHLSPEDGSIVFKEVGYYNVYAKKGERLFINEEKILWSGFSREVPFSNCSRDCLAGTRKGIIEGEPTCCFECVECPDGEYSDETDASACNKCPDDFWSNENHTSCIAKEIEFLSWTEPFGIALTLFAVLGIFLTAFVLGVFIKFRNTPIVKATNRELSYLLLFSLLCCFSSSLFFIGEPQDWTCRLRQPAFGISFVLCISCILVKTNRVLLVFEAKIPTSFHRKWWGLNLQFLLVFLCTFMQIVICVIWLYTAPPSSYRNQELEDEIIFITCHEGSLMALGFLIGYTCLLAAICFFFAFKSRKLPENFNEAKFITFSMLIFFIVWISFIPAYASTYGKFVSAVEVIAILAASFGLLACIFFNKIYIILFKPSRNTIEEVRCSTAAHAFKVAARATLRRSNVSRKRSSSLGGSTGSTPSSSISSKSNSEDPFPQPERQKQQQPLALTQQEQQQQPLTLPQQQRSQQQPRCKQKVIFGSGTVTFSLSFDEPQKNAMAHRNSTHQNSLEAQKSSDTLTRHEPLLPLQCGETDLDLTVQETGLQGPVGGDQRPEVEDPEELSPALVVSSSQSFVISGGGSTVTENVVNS
Method: The CaSR is a member of family C of G protein-coupled receptors (GPCR). Upon activation by extracellular Ca^2+ or specific compounds, CaSR triggers an increase in intracellular Ca^2+ concentration. To evaluate the effect of compounds on the allosteric activation of CaSR, a CHO cell line stably transfected with human CaSR (hCaSR-CHO) was utilized. Changes in intracellular Ca^2+ concentration were measured as a key indicator to assess the conformational activation of CaSR.
• 1. Preparation Before Plate Spreading: Twelve hours prior to cell spreading, a 384-well cell culture plate was coated with 0.1 mg/mL polylysine. • 2. Cell Spreading: Digested hCaSR-CHO cells were resuspended in complete medium, counted using a cell counter, and adjusted to a density of 5 × 10^5 cells/mL. A volume of 25 µL of cell suspension was inoculated into each well. After inoculation, the cells were incubated at 37 °C in a 5% CO2 incubator for 18 h. • 3. Preparation of Compound Test Solution: The test compounds were diluted to the required concentrations (10 µM, 2 µM, 400 nM, 80 nM, 16 nM, 3.2 nM, and 0.64 nM) and added to a 384-well spiked plate. Since the cell culture plate already contained 25 µL of Fluo-4 NW assay reagent and the instrument was set to deliver 20 µL of the system, the compound concentrations in the spiked plate were 2.25 times the actual assay concentrations. For example, […]. • 4. Preparation of Assay Reagents: According to the instructions of the Fluo-4 NW Calcium Assay Kit (Thermo, F36206), 1 mL of assay buffer was added to Component B to prepare a 250 mM probenecid solution. 100 µL of the probenecid solution was added to 10 mL of assay buffer and mixed thoroughly. Component A was added to the mixture to prepare a 1X dye loading solution. • 5. Fluorescent Dye Addition: The complete culture medium was discarded, and 25 µL of the 1X dye loading solution was added to the 384-well plate using a Multidrop automatic dispenser. The plate was incubated at 37 °C for 30 min in the dark, then transferred to room temperature for an additional 30 min. The plate was transferred to the FLIPER Tetra instrument (Molecular Devices). • 6. Data Acquisition: After adding 20 µL of the compound test solution, the excitation wavelength was set to 470-495 nm, and the emission was detected at 515-575 nm. The instrument's quality control board was used to ensure no errors before initiating detection. The detection duration was 660 seconds, and the raw data were exported at the end of the reading. • 7. Data Processing: The change in fluorescence intensity, representing intracellular calcium signals, was calculated by subtracting the minimum fluorescence value (average of 14-21 seconds) from the maximum fluorescence value (average of 40-80 seconds) after compound addition. Using GraphPad Prism 8.0, the EC50 values of individual compounds were determined by plotting the compound concentration on the x-axis and the change in fluorescence intensity on the y-axis.

[2] = Rat liver microsome stability test; type: in vitro ADME; conditions: rat liver microsomes, PBS pH 7.4, 37 °C, maximum incubation time 60 minutes
Method: Rat liver microsomes at a defined concentration, testosterone (positive control), tolbutamide (internal standard), the test compounds, and PBS (pH 7.4) were incubated at 37 °C. The reaction was quenched with methanol at 0, 5, 10, 20, 30, and 60 min, respectively. The samples were pretreated and analyzed using LC-MS. Data processing involved plotting the ratio of the peak area of the test compound to that of the internal standard (y-axis) against time (x-axis). The half-life (t1/2) was calculated from the data. Table 3. Stability data of compounds in rat liver microsomes.

[3] = Pharmacokinetic study in SD rats; type: in vivo; conditions: Sprague-Dawley, rat, plasma, male SD rats, single dose via oral gavage; for bioavailability: relative to Evocalcet (100)
Method: Animal Information: Male Sprague-Dawley (SD) rats, aged 7-8 weeks, were used. Each group consisted of 3-5 rats.
Dosing Information: The rats were fasted for more than 12 hours prior to administration. A single dose was administered via oral gavage.
Blood Sampling Time Points: Blood samples were collected from the tail vein before administration and at 0.25, 0.5, 1, 2, 4, 6, 8, and 24 hours post-administration. A volume of 100 µL of blood was collected at each time point.
Sample Processing and Storage: The blood samples were transferred into 1.5 mL microcentrifuge tubes, with 50 µL per tube (two tubes per sample). Centrifugation was completed within 2 hours. Whole blood samples were kept on ice prior to centrifugation. Centrifugation was performed at 4000 rpm, 2-8°C, for 10 minutes. After collecting the supernatant, it was stored at -80°C or below if not analyzed immediately.
Column: An InfinityLab Poroshell 120 SB-C18 column (2.1 × 100 mm, 2.7 µm) was used. Column Temperature: The temperature was maintained at 30°C. Flow Rate: The flow rate was set at 0.3 mL/min. Run Time: The total run time was 9.5 minutes. Post-run Time: A post-run time of 2 minutes was applied. Injection Volume: An injection volume of 2 µL was used. Mobile Phase: A mixture of methanol and 0.1% formic acid was employed as the mobile phase. Gradient Elution: Gradient elution was performed according to the table below.
Blood Sample Processing: 50 µL of plasma sample was aliquoted, and 25 µL of internal standard solution was added. The mixture was vortexed for 30 seconds. Then, 175 µL of methanol was added to precipitate proteins, and the mixture was vortexed again. The samples were centrifuged at 12,000 rpm for 10 minutes. Subsequently, 100 µL of the supernatant was collected and mixed with 300 µL of water. The final supernatant was injected for analysis.

[4] = tested on: parathyroid hormone (PTH); experiment: In vivo inhibition of blood PTH concentration in five-sixths nephrectomy hyperparathyroidism model rats (ELISA); conditions: PTH reduction at 1 hour post-administration compared with baseline PTH concentration at 0 hour; single dose by oral gavage; male SD rats, five-sixths nephrectomy plus special diet
Excerpt: Male SD rat models of hyperparathyroidism were constructed by five-sixths nephrectomy plus a special diet. Blood parathyroid hormone (PTH) level was used as the endpoint. ELISA was applied to determine the changes in plasma PTH concentration following compound treatment, thereby assessing the in vivo activity of the compound.
• 1. Model Construction: Specific pathogen-free (SPF)-grade male SD rats aged 7-8 weeks were used. The rats were acclimatized with normal feed for 1 week. Two-thirds of the left kidney was removed, and the rats were allowed to recover with normal feed for 1 week. Subsequently, the right kidney was removed, and the rats were allowed to recover with normal feed for an additional week. The rats were then fed a special diet (0.5% calcium and 1.2% total phosphorus) for 2 weeks. • 2. Detection and Grouping: Approximately 300 µL of blood was collected from the tail vein into a coagulation-promoting tube, left at room temperature for 30 minutes, and centrifuged at 12,000 rpm for 3 minutes to obtain serum samples. The concentration of intact PTH (1-84) in the serum was detected using the MicroVue Intact PTH EIA-96 Test (Quidel, catalog No. 60-2500). The rats were grouped based on their PTH concentration levels, ensuring that the mean PTH concentration in each group was approximately the same. • 3. Administration and Activity Testing: A single dose of the compound was administered by oral gavage. Blood samples were collected before and after administration, and serum was obtained using the method described in step 2. PTH levels were measured using ELISA.

| Structure (SMILES) | EC50 [1] [nM] | half-life [2] [min] | bioavailability [3] [%] | AUC(0-inf) [3] [ng·h/mL] | Cmax [3] [ng/mL] | Tmax [3] [min] | half-life [3] [min] | The reduction efficiency (%) [4] [%] |
| --- | --- | --- | --- | --- | --- | --- | --- | --- |
| Cc1cc(N2CC[C@H](N[C@H](C)c3cccc4ccccc34)C2)ccc1CC(=O)O [Compound 4, 2-(2-methyl-4-((S)-3-(((R)-1-(naphthalen-1-yl)ethyl)amino)pyrrolidin-1-yl)phenyl)acetic acid] | 52 | – | – | – | – | – | – | – |
| C[C@@H](N[C@H]1CCN(c2cc(F)c(CC(=O)O)c(F)c2)C1)c1cccc2ccccc12 [Compound 5, 2-(2,6-difluoro-4-((S)-3-(((R)-1-(naphthalen-1-yl)ethyl)amino)pyrrolidin-1-yl)phenyl)acetic acid] | 39.8 | > 60 | – | – | – | – | – | 81 |
| COc1cc(CC(=O)O)ccc1N1CC[C@H](N[C@H](C)c2cccc3ccccc23)C1 [Compound 6, 2-(3-methoxy-4-((S)-3-(((R)-1-(naphthalen-1-yl)ethyl)amino)pyrrolidin-1-yl)phenyl)acetic acid] | 42.5 | – | – | – | – | – | – | – |
| COc1cc(N2CC[C@H](N[C@H](C)c3cccc4ccccc34)C2)ccc1CC(=O)O [Compound 7, 2-(2-methoxy-4-((S)-3-(((R)-1-(naphthalen-1-yl)ethyl)amino)pyrrolidin-1-yl)phenyl)acetic acid] | 55.5 | – | – | – | – | – | – | – |
| C[C@@H](N[C@H]1CCN(c2ccc(CC(=O)O)cc2)C1)c1cccc2ccccc12 [Evocalcet, reference compound] | 67.6 | > 60 | 100 | 25400 ± 7360 | 2520 ± 212 | 69 ± 96 | 290 ± 23.4 | – |

Now from value to compound, other results behind:

| EC50 [1] [nM] | half-life [2] [min] | bioavailability [3] [%] | AUC(0-inf) [3] [ng·h/mL] | Cmax [3] [ng/mL] | Tmax [3] [min] | half-life [3] [min] | Structure (SMILES) | The reduction efficiency (%) [4] [%] |
| --- | --- | --- | --- | --- | --- | --- | --- | --- |
| 39.7 | – | – | – | – | – | – | C[C@@H](N[C@H]1CCN(c2ccc(CC(=O)O)c(F)c2)C1)c1cccc2ccccc12 [Compound 1, 2-(2-fluoro-4-((S)-3-(((R)-1-(naphthalen-1-yl)ethyl)amino)pyrrolidin-1-yl)phenyl)acetic acid] | – |
| 27.1 | > 60 | 136 | 34700 ± 2710 | 3550 ± 283 | 39 ± 20.4 | 355 ± 12.6 | C[C@@H](N[C@H]1CCN(c2ccc(CC(=O)O)cc2F)C1)c1cccc2ccccc12 [Compound 2, 2-(3-fluoro-4-((S)-3-(((R)-1-(naphthalen-1-yl)ethyl)amino)pyrrolidin-1-yl)phenyl)acetic acid] | 91 |
| 20.7 | > 60 | 144 | 36600 ± 1970 | 3770 ± 584 | 33 ± 16.2 | 310 ± 22.8 | Cc1cc(CC(=O)O)ccc1N1CC[C@H](N[C@H](C)c2cccc3ccccc23)C1 [Compound 3, 2-(3-methyl-4-((S)-3-(((R)-1-(naphthalen-1-yl)ethyl)amino)pyrrolidin-1-yl)phenyl)acetic acid] | 93 |
